The record followed here is patent publication US9469615B2, “Quinoxalines and AZA-quinoxalines as CRTH2 receptor modulators” (Merck Sharp & Dohme Corp., priority 2010, dated 2016).

By Ki is commonly meant a measure of affinity in units of concentration, obtained from inhibition or displacement. A high value points to lower affinity.

This assay concerns the target T1, hCRTH2 (Homo sapiens, UniProt Q9Y5Y4).
T1 construct: expressed in transfected cells; host or cells: HEK (human embryonic kidney) cells expressing hCRTH2; membrane preparation
T1 sequence (Q9Y5Y4 1-395): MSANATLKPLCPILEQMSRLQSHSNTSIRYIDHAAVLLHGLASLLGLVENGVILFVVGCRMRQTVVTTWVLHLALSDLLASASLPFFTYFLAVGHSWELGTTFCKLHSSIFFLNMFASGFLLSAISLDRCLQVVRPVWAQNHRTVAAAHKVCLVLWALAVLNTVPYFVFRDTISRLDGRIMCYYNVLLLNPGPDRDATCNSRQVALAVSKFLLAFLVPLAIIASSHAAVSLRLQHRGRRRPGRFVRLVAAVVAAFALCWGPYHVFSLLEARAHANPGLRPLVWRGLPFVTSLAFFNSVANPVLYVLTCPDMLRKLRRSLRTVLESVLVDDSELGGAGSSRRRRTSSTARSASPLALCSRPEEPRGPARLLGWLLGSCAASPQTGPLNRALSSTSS
Description: Radioligand binding assay ([3H]PGD2 competition, HEK-hCRTH2 membranes). The procedure, abridged:
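Displacement of 3.0 nM [3H]PGD2 from human CRTH2 expressed in HEK membranes was measured at room temperature over 60 min. Unlabelled PGD2 at 10 μM gave non-specific binding.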

The mark [1] stands for this setting: [3H]PGD2 binding, rated A-E (Table A).
Where [2] appears, read: [3H]PGD2 binding, values in text.

`O=C(O)CCCCc1nc2cc(C(=O)N3CCC(N4CCCC4)CC3)ccc2nc1-c1ccc(Cl)cc1` [compound 339, 5-(3-(4-chlorophenyl)-7-(4-(pyrrolidin-1-yl)piperidine-1-carbonyl)quinoxalin-2-yl)pentanoic acid] returned a Ki ([3H]PGD2 competition, Table B) of 20.1 to 200 nM.
Molecule `O=C(N[C@@H]1CCCc2ccccc21)c1ccc2nc(-c3ccc(F)cc3)c(CCC3CC3C(=O)O)nc2c1` (stereo partly drawn) [compound 501, 2-(2-(3-(4-fluorophenyl)-7-(((R)-1,2,3,4-tetrahydronaphthalen-1-yl)carbamoyl)quinoxalin-2-yl)ethyl)cyclopropane-carboxylic acid] registered a Ki ([3H]PGD2 competition, Table B) of 20.1 to 200 nM.
Same read-out and setting: in the case of `C[C@H](NC(=O)c1ccc2nc(-c3ccc(F)cc3)c(CCCCC(=O)O)nc2c1)c1ccc(F)c2ccccc12` [compound 571, (S)-5-(7-((1-(4-fluoronaphthalen-1-yl)ethyl)carbamoyl)-3-(4-fluorophenyl)quinoxalin-2-yl)pentanoic acid] it was 2.1 to 20 nM.
As to `CNC(=O)c1ccc2nc(-c3ccc(F)cc3)c(CCCCC(=O)O)nc2c1` [compound 7, 3-(4-fluorophenyl)-7-[(methylamino)carbonyl]-2-quinoxalinepentanoic acid], under setting [1], the Ki was in the range of 2.1 to 20 nM.
The molecule `O=C(O)CCCCc1nc2cc(C(=O)N[C@@H]3CCCc4ccccc43)c(F)cc2nc1-c1ccccc1` [compound 716, (R)-5-(6-fluoro-3-phenyl-7-((1,2,3,4-tetrahydro-naphthalen-1-yl)carbamoyl)quinoxalin-2-yl)pentanoic acid] had an inhibition constant Ki ([3H]PGD2 competition, Table B) of 2.1 to 20 nM.
`CC(=O)c1ccccc1-c1nc2ccc(C(=O)N3CCC(c4ccccc4)CC3)cc2nc1CCCCC(=O)O` [26U, 3-(2-acetylphenyl)-7-[(4-phenyl-1-piperidinyl)carbonyl]-2-quinoxalinepentanoic acid]: the inhibition constant (Ki) under setting [1] was 2.1 to 20 nM.
Molecule `CC(CCc1nc2cc(C(=O)N[C@H](C)c3ccc(Cl)cc3)ccc2nc1-c1ccc(Cl)cc1)CC(=O)O` (stereo partly drawn) [17E, 3-(4-chlorophenyl)-7-[[[1(R)-(4-chlorophenyl)ethyl]amino]carbonyl]-beta-methyl-2-quinoxalinepentanoic acid] had a Ki under setting [1] of 2.1 to 20 nM.
Regarding `N#Cc1cccnc1N1CCN(C(=O)c2ccc3nc(-c4ccccc4)c(CCCCC(=O)O)nc3c2)CC1` [compound 303, 5-(7-(4-(3-cyanopyridin-2-yl)piperazine-1-carbonyl)-3-phenylquinoxalin-2-yl)pentanoic acid], the inhibition constant Ki ([3H]PGD2 competition, Table B) is 2.1 to 20 nM.
Under “[3H]PGD2 competition, Table B”, `O=C(O)Cc1cccc(CCCc2nc3cc(C(=O)N4CC[C@@H](c5ccccc5)C4)ccc3nc2-c2ccc(F)cc2)c1` [compound 274, (S)-2-(3-(3-(3-(4-fluorophenyl)-7-(3-phenylpyrrolidine-1-carbonyl)quinoxalin-2-yl)propyl)phenyl)acetic acid] gave an inhibitory constant (Ki) of 2.1 to 20 nM.
Take `C[C@@H](CCc1nc2cc(C(=O)N(C)Cc3ccc(F)cc3)ccc2nc1-c1ccccc1)CC(=O)O` [compound 292]: the affinity under setting [2] corresponds to a Ki of 39.2 nM and the Ki ([3H]PGD2 competition, Table B) lay in the range of 20.1 to 200 nM.
For the setting “[3H]PGD2 competition, Table B”, `Cc1csc(C(C)N(C)C(=O)c2ccc3nc(-c4ccc(Cl)cc4)c(CCCCC(=O)O)nc3c2)n1` (stereo not shown) [compound 655, 5-(3-(4-chlorophenyl)-7-(methyl(1-(4-methylthiazol-2-yl)ethyl)carbamoyl)quinoxalin-2-yl)pentanoic acid] registered a Ki of 2.1 to 20 nM.
On the same count and under the same terms, as for `O=C(O)Cc1cc(F)cc(CCc2nc3cc(C(=O)NCc4ccc(Cl)cc4)ccc3nc2-c2ccc(Cl)cc2)c1` [compound 446], the figure is 2.1 to 20 nM.
Under setting [1], `O=C(O)CCCCc1nc2cc(C(=O)N3CCOCC3)ccc2nc1-c1ccc(Cl)cc1` [compound 177, 3-(4-chlorophenyl)-7-(4-morpholinylcarbonyl)-2-quinoxalinepentanoic acid] registered an inhibition constant (Ki) of 2.1 to 20 nM.
On the same count and under the same terms, as for `O=C(O)CCCCc1nc2cc(C(=O)N3CCC(c4ccccc4)C3)ccc2nc1-c1ccc(Cl)cc1` (stereo not shown) [16H, 3-(4-chlorophenyl)-7-[(3-phenyl-1-pyrrolidinyl)carbonyl]-2-quinoxalinepentanoic acid], the figure is 0.1 to 2 nM.
Where the note is “[3H]PGD2 competition, Table B”, `O=C(O)CCCCc1nc2cc(C(=O)N[C@H]3CCCc4ccncc43)ccc2nc1-c1ccc(Cl)cc1` [compound 618, (S)-5-(3-(4-chlorophenyl)-7-((5,6,7,8-tetrahydroisoquinolin-8-yl)carbamoyl)quinoxalin-2-yl)pentanoic acid] gave an inhibition constant Ki of 0.1 to 2 nM.
Still for that read-out and setting: in the case of `O=C(O)CCCCc1nc2cc(C(=O)N[C@H]3CCc4cc(F)ccc43)ccc2nc1-c1ccc(Cl)cc1` [compound 382, (S)-5-(3-(4-chlorophenyl)-7-((5-fluoro-2,3-dihydro-1H-inden-1-yl)carbamoyl)quinoxalin-2-yl)pentanoic acid] it was 0.1 to 2 nM.
For `C[C@@H](NC(=O)c1ccc2nc(-c3ccc(C(F)(F)F)cc3)c(CCCCC(=O)O)nc2c1)c1ccccc1` [3X, 7-[[(1-(R)-phenylethyl)amino]carbonyl]-3-[4-(trifluoromethyl)phenyl]-2-quinoxalinepentanoic acid], the Ki under setting [1] was 2.1 to 20 nM.
Still for that read-out and setting: as for `O=C(O)CCCCc1nc2cc(C(=O)N3CCC4(CC3)C(=O)NCN4c3ccccc3)ccc2nc1-c1ccc(F)cc1` [compound 126, 3-(4-fluorophenyl)-7-[(4-oxo-1-phenyl-1,3,8-triazaspiro[4.5]dec-8-yl)carbonyl]-2-quinoxalinepentanoic acid], the figure is 2.1 to 20 nM.
`O=C(O)CCCCc1nc2cc(C(=O)N3CCC(O)(c4ccccc4)C3)ccc2nc1-c1ccc(Cl)cc1` (stereo not shown) [compound 689, 5-(3-(4-chlorophenyl)-7-(3-hydroxy-3-phenylpyrrolidine-1-carbonyl)quinoxalin-2-yl)pentanoic acid]: the inhibition constant Ki ([3H]PGD2 competition, Table B) was 2.1 to 20 nM.
`CC1(C)CC[C@H](NC(=O)c2ccc3nc(-c4ccccc4)c(CCCCC(=O)O)nc3c2)c2ccccc21` [compound 721, (S)-5-(7-((4,4-dimethyl-1,2,3,4-tetrahydronaphthalen-1-yl)carbamoyl)-3-phenylquinoxalin-2-yl)pentanoic acid] came in with a Ki ([3H]PGD2 competition, Table B) of 2.1 to 20 nM.
Under setting [1], `O=C(O)CCCCc1nc2cc(C(=O)N3CCC(c4ccccc4)CC3)ccc2nc1-c1ccc(Cl)cc1Cl` [26Y, 3-(2,4-dichlorophenyl)-7-[(4-phenyl-1-piperidinyl)carbonyl]-2-quinoxalinepentanoic acid] returned a Ki of 0.1 to 2 nM.
Where the note is “[3H]PGD2 competition, Table B”, `O=C(O)CCCCc1nc2cc(C(=O)N3CCN4CCCC4C3)ccc2nc1-c1ccc(Cl)cc1` (stereo not shown) [compound 598, 5-(3-(4-chlorophenyl)-7-(octahydropyrrolo[1,2-a]pyrazine-2-carbonyl)quinoxalin-2-yl)pentanoic acid] had a Ki of 2.1 to 20 nM.
On to `O=C(O)CCCCc1nc2cc(C(=O)N3CC(c4nc5ccccc5[nH]4)C3)ccc2nc1-c1ccc(F)cc1` [compound 31, 5-(7-(3-(1H-benzo[d]imidazol-2-yl)azetidine-1-carbonyl)-3-(4-fluorophenyl)quinoxalin-2-yl)pentanoic acid], for which the inhibition constant Ki under setting [1] fell in the range of 2.1 to 20 nM.
Turning to `O=C(O)CCCCc1nc2cc(C(=O)N3CC(c4ccc(Cl)cc4)C3)ccc2nc1-c1ccc(Cl)cc1` [compound 426, 5-(3-(4-chlorophenyl)-7-(3-(4-chlorophenyl)azetidine-1-carbonyl)quinoxalin-2-yl)pentanoic acid], the inhibition constant (Ki) ([3H]PGD2 competition, Table B) fell in the range of 0.1 to 2 nM.
With `O=C(O)CCCCc1nc2cc(C(=O)N3CCC(c4ccc(Cl)cc4)CC3)ccc2nc1-c1ccc(F)cc1` [compound 135], the inhibitory constant (Ki) under setting [1] was 2.1 to 20 nM.
The molecule `O=C(O)CCCCc1nc2cc(C(=O)N3CCN(c4ccccc4)CC3)ccc2nc1-c1ccc(Cl)cc1` [16AG, 3-(4-chlorophenyl)-7-[(4-phenyl-1-piperazinyl)carbonyl]-2-quinoxalinepentanoic acid] yielded an inhibitory constant (Ki) under setting [1] of 0.1 to 2 nM and a Ki under setting [2] of 1.2 nM.
On to `O=C(O)CCCCc1nc2cc(C(=O)NCc3ccc(C(F)(F)F)cc3)ccc2nc1-c1ccccc1` [15C, 5-(3-phenyl-7-{[4-(trifluoromethyl)benzyl]carbamoyl}quinoxalin-2-yl)pentanoic acid], for which the inhibitory constant (Ki) under setting [1] fell in the range of 0.1 to 2 nM.
Same read-out and setting: as for `O=C(O)CCCCc1nc2cc(C(=O)N[C@@H]3CCCc4cc(F)ccc43)ccc2nc1-c1ccccc1` [compound 40, (R)-5-(7-((6-fluoro-1,2,3,4-tetrahydronaphthalen-1-yl)carbamoyl)-3-phenylquinoxalin-2-yl)pentanoic acid], the figure is 2.1 to 20 nM; as for `C[C@H](NC(=O)c1ccc2nc(-c3ccc(C(F)(F)F)cc3)c(CCCCC(=O)O)nc2c1)c1cccc(-c2ccccc2)c1` [compound 4, (S)-5-{7-[1-(biphenyl-3-yl)ethylcarbamoyl]-3-[4-(trifluoromethyl)phenyl]quinoxalin-2-yl}pentanoic Acid], 2.1 to 20 nM.
`C[C@@H](NC(=O)c1ccc2nc(-c3ccc(F)cc3)c(CCCc3cccc(CC(=O)O)c3)nc2c1)c1ccc(F)cc1` [compound 271] came in with a Ki ([3H]PGD2 competition, Table B) of 201 to 700 nM.
Molecule `CC(CCc1nc2cc(C(=O)N[C@H](c3ccccc3)C(F)(F)F)ccc2nc1-c1ccc(Cl)cc1)CC(=O)O` (stereo partly drawn) [17N, 3-(4-chlorophenyl)-beta-methyl-7-[[(2,2,2-trifluoro-1(R)-phenylethyl)amino]carbonyl]-2-quinoxalinepentanoic acid] had a Ki under setting [1] of 2.1 to 20 nM.
In the case of `O=C(N[C@@H]1CCCc2ccccc21)c1ccc2nc(-c3ccccc3)c(CCCC(F)C(=O)O)nc2c1` (mixture of isomers) [compound 38, 2-fluoro-5-(3-phenyl-7-(((R)-1,2,3,4-tetrahydronaphthalen-1-yl)carbamoyl)quinoxalin-2-yl)pentanoic acid], the Ki under setting [1] was 20.1 to 200 nM.
